Assay results taken from DBAASP.
≈ marks a conversion by molar mass, not a printed value. Where “and” joins values, the source holds several entries; their conditions need not be identical. Equal values may be shown once. Blank lines part the entries; values can stand above or below the compound they belong to.

Key:
Experiment in all cases: ≥ marks a high value that may be exact or a test limit, other limits are often not marked, values filed in µg/mL are converted to µM
Pseudomonas aeruginosa = tested on: Pseudomonas aeruginosa
[1] = tested on: Acinetobacter calcoaceticus
Bacillus cereus = tested on: Bacillus cereus
Bacillus pumilus = tested on: Bacillus pumilus
[2] = tested on: Candida albicans ATCC 2002
[3] = tested on: Escherichia coli ATCC 25922
Shigella dysenteriae = tested on: Shigella dysenteriae
[4] = tested on: Staphylococcus aureus ATCC 2592
Lactococcus lactis = tested on: Lactococcus lactis
[5] = tested on: Staphylococcus aureus AS1.72
Candida albicans = tested on: Candida albicans
Escherichia coli AS1.349 = tested on: Escherichia coli AS1.349
[6] = tested on: Salmonella enterica subsp. enterica serovar Enteritidis
[7] = tested on: Staphylococcus aureus ATCC 25923
[8] = tested on: Staphylococcus aureus ATCC 29213
[9] = tested on: Pseudomonas aeruginosa CMCCB 10104
Listeria innocua = tested on: Listeria innocua
[10] = tested on: Staphylococcus aureus USA 300
[11] = tested on: Staphylococcus aureus USA 100
Staphylococcus aureus = tested on: Staphylococcus aureus
[12] = tested on: Pseudomonas aeruginosa ATCC 9027
Escherichia coli = tested on: Escherichia coli
[13] = tested on: Candida albicans ATCC 90028
Micrococcus luteus = tested on: Micrococcus luteus
[14] = tested on: Pseudomonas aeruginosa H103
[15] = tested on: Staphylococcus aureus C623
[16] = tested on: Pseudomonas aeruginosa LES400
[17] = tested on: Enterococcus faecium mic80
Candida albicans C627 = tested on: Candida albicans C627
[18] = tested on: Pseudomonas aeruginosa 213
[19] = tested on: Escherichia coli ESBL 63103
[20] = tested on: Staphylococcus epidermidis PCM 2118
Escherichia coli B = tested on: Escherichia coli B
Bacillus subtilis 168 = tested on: Bacillus subtilis 168
[21] = tested on: Staphylococcus aureus PMC 1650
[22] = tested on: Escherichia coli PCM 2057
[23] = tested on: Candida glabrata CCM 8270
Candida krusei CCM 8271 = tested on: Candida krusei CCM 8271
[24] = tested on: Candida albicans F7-39/IDE99
[25] = tested on: Candida parapsilosis CCM 8260
[26] = tested on: Staphylococcus epidermidis PCM 521
[27] = tested on: Staphylococcus aureus PCM 2054
Bacillus cereus AS1.126 = tested on: Bacillus cereus AS1.126
[28] = tested on: Lactococcus lactis AS1.1690
[29] = tested on: Enterococcus faecalis CGMCC 1.595
[30] = tested on: Pseudomonas aeruginosa CGMCC 1.860
[31] = tested on: Enterococcus faecium CGMCC 1.2334

MIC (Pseudomonas aeruginosa): 3.01 µM (≈ 5 µg/mL) | MIC [1]: 18.1 µM (≈ 30 µg/mL) | MIC (Bacillus cereus): 18.1 µM (≈ 30 µg/mL) | MIC (Bacillus pumilus): 3.01 µM (≈ 5 µg/mL) | MIC [2]: 1.51 µM (≈ 2.5 µg/mL) | MIC [3]: 1.51 µM (≈ 2.5 µg/mL) | MIC (Shigella dysenteriae): 3.01 µM (≈ 5 µg/mL) | MIC [4]: 1.51 µM (≈ 2.5 µg/mL)
Compound: CC[C@H](C)[C@H](NC(=O)[C@@H]1CCCN1C(=O)[C@H](Cc1ccccc1)NC(=O)[C@@H](N)Cc1ccccc1)C(=O)N[C@H](C(=O)NCC(=O)N[C@@H](CCCCN)C(=O)N[C@@H](CC(C)C)C(=O)N[C@@H](CC(C)C)C(=O)N[C@@H](CO)C(=O)NCC(=O)N[C@@H](CC(C)C)C(=O)N[C@@H](CO)C(=O)NCC(=O)N[C@@H](CC(C)C)C(=O)N[C@@H](CC(C)C)C(N)=O)C(C)C [FFPIVGKLLSGLSGLL]

MIC (Pseudomonas aeruginosa): 12.5 µM (≈ 18 µg/mL) | MIC (Lactococcus lactis): 3.13 µM (≈ 4.52 µg/mL) | MIC [5]: 3.13 µM (≈ 4.52 µg/mL) | MIC (Candida albicans): 6.25 µM (≈ 9.02 µg/mL) | MIC (Escherichia coli AS1.349): 12.5 µM (≈ 18 µg/mL) | MIC (Bacillus cereus): 3.13 µM (≈ 4.52 µg/mL)
Compound: CC(C)C[C@H](NC(=O)[C@H](CC(C)C)NC(=O)CNC(=O)[C@H](Cc1ccccc1)NC(=O)[C@H](CCCN=C(N)N)NC(=O)[C@H](CC(C)C)NC(=O)[C@H](CCCCN)NC(=O)[C@H](CCCCN)NC(=O)[C@H](CC(C)C)NC(=O)[C@@H]1CCCN1C(=O)[C@H](CC(C)C)NC(=O)[C@@H](N)Cc1ccccc1)C(N)=O [FLPLKKLRFGLL]

MIC (Pseudomonas aeruginosa): 12.9 µM (≈ 50 µg/mL) | MIC [1]: 3.23 µM (≈ 12.5 µg/mL) | MIC (Bacillus cereus): 1.94 µM (≈ 7.5 µg/mL) | MIC (Bacillus pumilus): 0.646 µM (≈ 2.5 µg/mL) | MIC [2]: 0.646 µM (≈ 2.5 µg/mL) | MIC [3]: 3.23 µM (≈ 12.5 µg/mL) | MIC (Shigella dysenteriae): 1.94 µM (≈ 7.5 µg/mL) | MIC [4]: 0.323 µM (≈ 1.25 µg/mL)
Compound: CC[C@H](C)[C@H](NC(=O)CN)C(=O)N[C@@H](Cc1ccccc1)C(=O)N[C@@H](CO)C(=O)N[C@@H](CC(C)C)C(=O)N[C@H](C(=O)N[C@@H](CCCCN)C(=O)N[C@H](C(=O)N[C@@H](C)C(=O)N[C@@H](C)C(=O)N[C@@H](CCCCN)C(=O)N[C@@H](Cc1ccccc1)C(=O)N[C@H](C(=O)NCC(=O)N[C@@H](CCCCN)C(=O)N[C@@H](CC(N)=O)C(=O)N[C@@H](CC(C)C)C(=O)N[C@@H](CC(C)C)C(=O)N[C@@H](CCCCN)C(=O)N[C@@H](CCC(N)=O)C(=O)N[C@@H](C)C(=O)NCC(=O)N[C@@H](CCCCN)C(=O)N[C@@H](C)C(=O)NCC(=O)N[C@H](C(=O)N[C@@H](CCC(=O)O)C(=O)N[C@@H](Cc1cnc[nH]1)C(=O)N[C@@H](CC(C)C)C(=O)N[C@@H](C)C(=O)N[C@H]1CSSC[C@@H](C(=O)O)NC(=O)[C@H](CCC(N)=O)NC(=O)[C@H](CC(N)=O)NC(=O)[C@H](CC(N)=O)NC(=O)[C@H](C)NC(=O)[C@H](CCCCN)NC1=O)C(C)C)C(C)C)[C@@H](C)O)[C@@H](C)CC [GIFSLIKTAAKFVGKNLLKQAGKAGVEHLACKANNQC]

MIC [6]: ≥ 64.9 µM | MIC [7]: 5.27 µM (≈ 10.4 µg/mL) | MIC [2]: 2.63 µM (≈ 5.19 µg/mL) | MIC [3]: 2.63 µM and 5.73 µM | MIC [8]: 11.5 µM (≈ 22.6 µg/mL) | MIC [9]: 5.27 µM (≈ 10.4 µg/mL)
Compound: CC[C@H](C)[C@H](NC(=O)[C@H](CCCCN)NC(=O)[C@H](CCCCN)NC(=O)CNC(=O)[C@@H](NC(=O)CNC(=O)[C@H](CC(C)C)NC(=O)[C@@H](NC(=O)CNC(=O)[C@H](CO)NC(=O)[C@H](CC(C)C)NC(=O)[C@H](CC(C)C)NC(=O)CN)C(C)C)C(C)C)C(=O)N[C@H](C(=O)N[C@H]1CSSC[C@@H](C(=O)O)NC(=O)[C@H](CC(C)C)NC(=O)CNC(=O)[C@H](CO)NC(=O)[C@H](CC(C)C)NC(=O)CNC1=O)C(C)C [GLLSGVLGVGKKIVCGLSGLC]

MIC (Listeria innocua): 1 µM (≈ 0.466 µg/mL) | MIC [10]: ≥ 100 µM | MIC [6]: 1 µM (≈ 0.466 µg/mL) | MIC [11]: ≥ 100 µM | MIC (Staphylococcus aureus): 1 µM (≈ 0.466 µg/mL) | MIC [12]: > 100 µM | MIC (Escherichia coli): 1 µM (≈ 0.466 µg/mL) | MIC [13]: ≥ 100 µM | MIC (Micrococcus luteus): 2 µM (≈ 0.931 µg/mL)
Compound: NCCCCC(N)C(=O)NC(Cc1ccc(O)cc1)C(=O)NC(CCCN=C(N)N)C(=O)O (stereo not given) [KYR]

MIC [14]: ≥ 46.7 µM | MIC [15]: ≥ 46.7 µM | MIC [7]: 93.3 µM (≈ 128 µg/mL) | MIC [16]: ≥ 93.3 µM | MIC [17]: 23.3 µM (≈ 32 µg/mL) | MIC (Candida albicans C627): 5.83 µM (≈ 8 µg/mL) | MIC [18]: ≥ 93.3 µM | MIC [19]: ≥ 46.7 µM
Compound: CC[C@H](C)[C@H](NC(=O)[C@H](CCCCN)NC(=O)[C@H](Cc1c[nH]c2ccccc12)NC(=O)[C@@H](NC(=O)[C@@H](N)CCCN=C(N)N)[C@@H](C)CC)C(=O)N[C@@H](Cc1c[nH]c2ccccc12)C(=O)N[C@@H](Cc1c[nH]c2ccccc12)C(=O)N[C@@H](CCCCN)C(=O)N[C@@H](CCCN=C(N)N)C(=O)O [RIWKIWWKR]

MIC [20]: 3.62 µM (≈ 6.25 µg/mL) | MIC (Escherichia coli B): 1.7 µM (≈ 2.93 µg/mL) | MIC (Pseudomonas aeruginosa): 15.8 µM (≈ 27.2 µg/mL) | MIC (Bacillus subtilis 168): 0.8 µM (≈ 1.38 µg/mL) | MIC [21]: 14.5 µM (≈ 25 µg/mL) | MIC (Staphylococcus aureus): 14.3 µM (≈ 24.6 µg/mL) | MIC [22]: 7.25 µM (≈ 12.5 µg/mL) | MIC [23]: 29 µM (≈ 50 µg/mL) | MIC (Candida krusei CCM 8271): 29 µM (≈ 50 µg/mL) | MIC [24]: 9.1 µM (≈ 15.7 µg/mL) | MIC [25]: 29 µM (≈ 50 µg/mL) | MIC [26]: 7.25 µM (≈ 12.5 µg/mL) | MIC [27]: 29 µM (≈ 50 µg/mL)
Compound: CC[C@H](C)[C@H](NC(=O)[C@H](CCCCN)NC(=O)CNC(=O)[C@H](CC(C)C)NC(=O)[C@@H](NC(=O)[C@H](CCCCN)NC(=O)[C@H](CCCCN)NC(=O)[C@H](Cc1c[nH]c2ccccc12)NC(=O)[C@H](CC(N)=O)NC(=O)[C@@H](N)C(C)C)C(C)C)C(=O)N[C@H](C(=O)N[C@@H](CCCCN)C(=O)N[C@H](C(=O)N[C@@H](C)C(=O)N[C@@H](CCCCN)C(N)=O)C(C)C)[C@@H](C)CC [VNWKKVLGKIIKVAK]

MIC (Bacillus cereus AS1.126): 3.13 µM (≈ 5.33 µg/mL) | MIC [5]: 6.25 µM (≈ 10.7 µg/mL) | MIC [28]: 6.25 µM (≈ 10.7 µg/mL) | MIC (Escherichia coli AS1.349): 3.13 µM (≈ 5.33 µg/mL) | MIC [29]: 6.25 µM (≈ 10.7 µg/mL) | MIC [30]: 1.56 µM (≈ 2.66 µg/mL) | MIC [31]: 6.25 µM (≈ 10.7 µg/mL)
Compound: CC(C)[C@H](N)C(=O)N[C@@H](Cc1c[nH]c2ccccc12)C(=O)N[C@@H](CCCN=C(N)N)C(=O)N[C@@H](CCCCN)C(=O)N[C@@H](Cc1c[nH]c2ccccc12)C(=O)N[C@@H](CCCN=C(N)N)C(=O)N[C@@H](CCCN=C(N)N)C(=O)N[C@@H](Cc1ccccc1)C(=O)N[C@@H](Cc1c[nH]c2ccccc12)C(=O)N[C@@H](CCCCN)C(=O)N[C@@H](CCCN=C(N)N)C(=O)O [VWRKWRRFWKR]
